# Reference: patent publication US7494991B2, “Rifamycin analogs and uses thereof” (ActivBiotics Pharma, LLC, priority 2003, dated 2009)
# What was measured:
# C. trachomatis = assay: MIC assay, C. trachomatis; type: cell-based
# S. aureus = assay: MIC assay, S. aureus; type: cell-based
# S. pneumo. = assay: MIC assay, S. pneumo.; type: cell-based, S. pneumoniae
# E. faecalis = assay: MIC assay, E. faecalis; type: cell-based
# H. flu = assay: MIC assay, H. flu; type: cell-based, H. influenza
# E. coli = assay: MIC assay, E. coli; type: cell-based
SMILES,MIC (μg/mL) C. trachomatis (C. trachomatis) [µg/mL],MIC (μg/mL) S. aureus (S. aureus) [µg/mL],MIC (μg/mL) S. pneumo. (S. pneumo.) [µg/mL],MIC (μg/mL) E. faecalis (E. faecalis) [µg/mL],MIC (μg/mL) H. flu (H. flu) [µg/mL],MIC (μg/mL) E. coli (E. coli) [µg/mL]
CO[C@H]1/C=C/O[C@@]2(C)Oc3c(C)c(O)c4c(=O)c(c5oc6c7c(cc(O)c6nc-5c4c3C2=O)N(C)CCCN7C)NC(=O)/C(C)=C\C=C\[C@H](C)[C@H](O)[C@@H](C)[C@@H](O)[C@@H](C)[C@H](OC(C)=O)[C@@H]1C [Compound 3],6.4e-05,0.06,0.008,4,2,>8
CO[C@H]1/C=C/O[C@@]2(C)Oc3c(C)c(O)c4c(=O)c(c5oc6c7c(cc(O)c6nc-5c4c3C2=O)N(C)CCCN7C)NC(=O)/C(C)=C\C=C\[C@H](C)[C@H](O)[C@@H](C)[C@@H](O)[C@@H](C)[C@H](O)[C@@H]1C [Compound 4],0.001,0.12,0.00012,1,2,>8
CO[C@H]1/C=C/O[C@@]2(C)Oc3c(C)c(O)c4c(=O)c(c5oc6c7c(cc(O)c6nc-5c4c3C2=O)N(C)CCN7C)NC(=O)/C(C)=C\C=C\[C@H](C)[C@H](O)[C@@H](C)[C@@H](O)[C@@H](C)[C@H](OC(C)=O)[C@@H]1C [Compound 1],6.4e-05,0.008,0.00012,1,1,8
CO[C@H]1/C=C/O[C@@]2(C)Oc3c(C)c(O)c4c(=O)c(c5oc6c7c(cc(O)c6nc-5c4c3C2=O)N(C)CCN7C)NC(=O)/C(C)=C\C=C\[C@H](C)[C@H](O)[C@@H](C)[C@@H](O)[C@@H](C)[C@H](O)[C@@H]1C [Compound 2],0.001,0.5,0.06,1,2,8
